Our source for the TGI and GI50 values is PubChem BioAssay (NCI).

Common to all, as to experiment: NCI-60 cell line screen, 48 h
The test system of assay [1] is SF-268 CNS.
Assay [2] concerns SK-MEL-28 melanoma.
The test system of assay [3] is HCT-15 colon.
The subject of assay [4] is OVCAR-4 ovarian.
In assay [5] the test system is SW-620 colon.
The subject of assay [6] is OVCAR-5 ovarian.
In assay [7] the test system is SK-OV-3 ovarian.
Assay [8] concerns EKVX NSCLC.
For assay [9], the system named is OVCAR-3 ovarian.

The structures appear in SMILES notation. Several values for one entry are separate records, joined by “and”; a condition that tells them apart may be missing. Identical values can stand only once.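 Step 1: Grow cells in 96-well plates. Step 2: Expose to compound for 48 hours at 5 concentrations. Step 3: Interpolate endpoints linearly; if unreached, use highest concentration. Abbreviation: GI50, concentration required for 50% inhibition of growth. The concentration for full growth arrest is given as TGI.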

With `O=C(O)CCCl`, the TGI in assay [1], in [2], in assay [3], in assay [4], in [5] and in [6] was greater than 5000 µM each time. For the same compound, the TGI in assay [7] is greater than 5000 µM.
For the compound `C=C1C(=O)OC2/C=C(\C)C(OC(C)=O)C3OC3C(C)(O)CC(OC(=O)/C(C)=C/C)C12` (stereo not given), the TGI was 30.2 µM in assay [1]; 34.9 µM in assay [8]; 16.2 µM in assay [2]; 30.8 µM in [3]; 62.2 µM in [4]; 1.89 µM in [5]. The TGI in [9] was 15.8 µM; in assay [6], 32.3 µM; in assay [7], 34.5 µM.
In the case of `O=C(CSc1nnc(-c2ccc(N=Cc3ccc(Cl)cc3)cc2)o1)Nc1ccccc1Cl`, the TGI in [1], in [8], in assay [2], in [3], in [4] and in assay [5] was greater than 100 µM throughout. This compound also yielded a TGI in assay [7] greater than 100 µM.
Regarding `S=c1sc2c(Cl)ncnc2n1-c1ccccc1`, the TGI is 18.5 µM in assay [1]; 31.5 µM in assay [8]; 23.6 µM in assay [2]; 28.4 µM in assay [3]; 33.6 µM in assay [4]; 35.1 µM in [5]. The values for the TGI in [9], in [6] and in assay [7] were 28.9 µM, 53.8 µM and 34.3 µM, respectively.
In the case of `CCCC(=O)O`, the TGI in [1], in assay [8], in [2], in assay [3], in assay [4] and in assay [5] was greater than 18700 µM throughout. The TGI in assay [9], in assay [6] and in assay [7] was greater than 18700 µM each time.
As for `CCC1(O)CC(OC2CC(N(C)C)C(OC3CC4OC5CC(=O)C(C)OC5OC4C(C)O3)C(C)O2)c2c(cc3c(c2O)C(=O)c2c(O)ccc(O)c2C3=O)C1C(=O)OC` (stereo not given), the GI50 is 0.00656 µM and 0.00711 µM in assay [9]; 0.00138 µM and 0.00225 µM and 0.00943 µM in assay [6]. For the same compound, in assay [9], the TGI was 0.0789 µM and 0.0232 µM and < 0.0174 µM.
Regarding `CCN(CC)CCNC(=O)c1ccccc1NC(=O)C(=O)Nc1ccccc1C(=O)NCCN(CC)CC`, the TGI in [1] was greater than 100 µM; in [8], greater than 100 µM; in assay [2], greater than 100 µM; in assay [3] it was greater than 100 µM; in [4], greater than 100 µM; in assay [5], 42 µM. Besides, the TGI in [9], in [6] and in [7] was greater than 100 µM throughout.
As to `O=C(Nc1c(O)[nH]c(=S)[nH]c1=O)c1ccccn1`, the TGI in [1], in assay [2], in [3], in [4], in assay [5] and in assay [9] was greater than 100 µM each time. Besides, the TGI in assay [6] and in assay [7] was greater than 100 µM throughout.
Consider `CC12CC3C(CC1SCC(=O)O2)C3(C)C` (stereo not given), for which the TGI in [1], in assay [8], in assay [2], in assay [3], in [4] and in assay [9] was greater than 100 µM in each case. Moreover, the TGI in assay [6] and in assay [7] was greater than 100 µM throughout.
For `C[N+]1(C)CCCC1C(=O)[O-]` (stereo not given), the TGI in assay [1], in assay [8], in assay [2], in assay [3], in [4] and in assay [5] was greater than 100 µM each time. The TGI in assay [9] and in assay [7] was greater than 100 µM in each case.
In the case of `CC(=O)OCC1OC(Nc2[nH]c(=O)n(C)c(=O)c2-c2csc(N)n2)C(OC(C)=O)C(OC(C)=O)C1OC(C)=O` (stereo not given), the TGI in [1], in [2], in assay [3], in assay [4], in assay [5] and in assay [9] was greater than 100 µM each time. The TGI in [6] and in assay [7] was greater than 100 µM in each case.
Take `COc1ccc(-c2nc(N)c(C#N)c3c2CCS(=O)(=O)c2ccc(C)cc2-3)cc1OC`: the TGI in [1], in [2], in assay [3], in [4], in assay [5] and in assay [9] was greater than 100 µM throughout. The compound also showed a TGI in assay [6] greater than 100 µM.
As to `C1=C(c2ccccc2)CN(c2ccccc2)OC1`, the TGI in assay [1], in [8], in assay [2], in assay [3], in assay [5] and in assay [9] was greater than 100 µM in each case. Also, the TGI in assay [6] and in assay [7] was greater than 100 µM throughout.
